Source: ChEMBL document CHEMBL3745645, “Synthesis, in vitro antitumor activity, dihydrofolate reductase inhibition, DNA intercalation and structure-activity relationship studies of 1,3,5-triazine analogues” (Bioorg Med Chem Lett, 2016)
Calls of active or inactive are those of the source. The calls are words filed in the database; no cut-off is given here.

How the values were obtained:
Malme-3M = assay: Cytotoxicity against human MALME-3M cells at 10 uM after 48 hrs by SRB assay; format: functional
[1] = Cytotoxicity against human HOP92 cells at 10 uM after 48 hrs by SRB assay; format: functional; conditions: HOP-92, 48 h, read-out: GI
HL-60(TB) = assay: Cytotoxicity against human HL-60(TB) cells at 10 uM after 48 hrs by SRB assay; format: functional
TK-10 = assay: Cytotoxicity against human TK10 cells at 10 uM after 48 hrs by SRB assay; format: functional
CCRF-CEM [2] = assay: Cytotoxicity against human CCRF-CEM cells at 10 uM after 48 hrs by SRB assay; format: functional
UACC-257 = assay: Cytotoxicity against human UACC257 cells at 10 uM after 48 hrs by SRB assay; format: functional
SK-MEL-5 = assay: Cytotoxicity against human SK-MEL-5 cells at 10 uM after 48 hrs by SRB assay; format: functional
[3] = Cytotoxicity against human IGROV1 cells after 48 hrs by SRB assay; format: functional; conditions: IGROV-1, 48 h, pooled result: one value given for 7 cell lines, strains, targets or settings
NCI-H226 = assay: Cytotoxicity against human NCI-H226 cells at 10 uM after 48 hrs by SRB assay; format: functional
CCRF-CEM [4] = assay: Cytotoxicity against human CCRF-CEM cells after 48 hrs by SRB assay; format: functional; conditions: for GI50 / TGI: pooled result: one value given for 6 cell lines, strains, targets or settings
NCI-H522 = assay: Cytotoxicity against human NCI-H522 cells at 10 uM after 48 hrs by SRB assay; format: functional
MCF7 [5] = assay: Cytotoxicity against human MCF7 cells at 10 uM after 48 hrs by SRB assay; format: functional; conditions: MCF7, 48 h, read-out: GI
HCT-15 = assay: Cytotoxicity against human HCT15 cells at 10 uM after 48 hrs by SRB assay; format: functional
MCF7 [6] = assay: Cytotoxicity against human MCF7 cells after 48 hrs by SRB assay; format: functional; conditions: MCF7, 48 h, pooled result: one value given for 6 cell lines, strains, targets or settings
UACC-62 = assay: Cytotoxicity against human UACC62 cells at 10 uM after 48 hrs by SRB assay; format: functional
[7] = Cytotoxicity against human HL-60(TB) cells after 48 hrs by SRB assay; format: functional; conditions: HL-60, 48 h, read-out: LC50 (the source's name)
UO-31 = assay: Cytotoxicity against human UO31 cells at 10 uM after 48 hrs by SRB assay; format: functional
[8] = Cytotoxicity against human MOLT4 cells after 48 hrs by SRB assay; format: functional; conditions: MOLT-4, 48 h, read-out: LC50 (the source's name)
A549 = assay: Cytotoxicity against human A549 cells at 10 uM after 48 hrs by SRB assay; format: functional
MDA-MB-231 = assay: Cytotoxicity against human MDA-MB-231 cells at 10 uM after 48 hrs by SRB assay; format: functional
[9] = Cytotoxicity against human IGROV1 cells at 10 uM after 48 hrs by SRB assay; format: functional; conditions: IGROV-1, 48 h, read-out: GI
SF-295 = assay: Cytotoxicity against human SF295 cells at 10 uM after 48 hrs by SRB assay; format: functional
SR = assay: Cytotoxicity against human SR cells after 48 hrs by SRB assay; format: functional
OVCAR-4 = assay: (§1) Cytotoxicity against human OVCAR4 cells at 10 uM after 48 hrs by SRB assay; format: functional
[10] = Cytotoxicity against human DU145 cells at 10 uM after 48 hrs by SRB assay; format: functional; conditions: DU-145, 48 h, read-out: GI
KM12 = assay: Cytotoxicity against human KM12 cells at 10 uM after 48 hrs by SRB assay; format: functional
SK-MEL-2 = assay: Cytotoxicity against human SK-MEL-2 cells at 10 uM after 48 hrs by SRB assay; format: functional
NCI-H460 = assay: Cytotoxicity against human NCI-H460 cells at 10 uM after 48 hrs by SRB assay; format: functional
HCT-116 = assay: Cytotoxicity against human HCT116 cells at 10 uM after 48 hrs by SRB assay; format: functional
[11] = Cytotoxicity against human NCI-ADR-RES cells at 10 uM after 48 hrs by SRB assay; format: functional; conditions: read-out: GI
K562 = assay: Cytotoxicity against human K562 cells at 10 uM after 48 hrs by SRB assay; format: functional; conditions: K562, 48 h, read-out: GI
SF-539 = assay: Cytotoxicity against human SF539 cells at 10 uM after 48 hrs by SRB assay; format: functional
Calf thymus DNA = assay: Binding affinity to calf thymus DNA assessed as melting temperature by spectrophotometric analysis (reference value: 60 degC); format: nucleic-acid assay; conditions: Bos taurus
HCC 2998 = assay: Cytotoxicity against human HCC2998 cells at 10 uM after 48 hrs by SRB assay; format: functional
[12] = Cytotoxicity against human PC3 cells at 10 uM after 48 hrs by SRB assay; format: functional; conditions: PC-3, 48 h, read-out: GI
BT-549 = assay: Cytotoxicity against human BT549 cells at 10 uM after 48 hrs by SRB assay; format: functional
RPMI-8226 = assay: Cytotoxicity against human RPMI8226 cells at 10 uM after 48 hrs by SRB assay; format: functional
[13] = as §1; format: functional; conditions: OVCAR-4, 48 h, read-out: GI
MOLT-4 = assay: Cytotoxicity against human MOLT4 cells at 10 uM after 48 hrs by SRB assay; format: functional

## Cc1nc2cc(Nc3nc(Nc4ccc(F)cc4)nc(N4CCN(C)CC4)n3)ccc2n1Cc1ccccc1
Malme-3M
  growth inhibition (GI): Active
[1]
  inhibition of growth at 10 µM: 97.5%
HL-60(TB)
  growth inhibition (GI): Active
TK-10
  growth inhibition (GI): Active
CCRF-CEM [2]
  growth inhibition (GI): Active
UACC-257
  growth inhibition (GI): Active
SK-MEL-5; SK-MEL-5, 48 h, read-out: GI
  inhibition of growth at 10 µM: 29.1%
[3]
  GI50: 2.16 µM
  LC50 (concentration killing 50% of cells): 15.5 µM
  TGI: 5.25 µM
NCI-H226; NCI-H226, 48 h, read-out: GI
  inhibition of growth at 10 µM: 35%
CCRF-CEM [4]
  LC50: 8.47 µM
  GI50: 1.43 µM
  TGI: 4.04 µM
NCI-H522
  growth inhibition (GI): Active
MCF7 [5]
  inhibition of growth at 10 µM: 82.1%
HCT-15
  growth inhibition (GI): Active
MCF7 [6]
  GI50: 1.61 µM
  LC50 (concentration killing 50% of cells): 7.54 µM
  TGI: 3.6 µM
UACC-62
  growth inhibition (GI): Active
[7]
  CC50: 8.47 µM
UO-31
  growth inhibition (GI): Active
[8]
  CC50: 8.47 µM
A549; A549, 48 h, read-out: GI
  inhibition of growth at 10 µM: 92.8%
MDA-MB-231
  growth inhibition (GI): Active
[9]
  inhibition of growth at 10 µM: 75.4%
SF-295
  growth inhibition (GI): Active
SR
  LC50 (concentration killing 50% of cells): 8.47 µM
OVCAR-4
  growth inhibition (GI): Active
[10]
  inhibition of growth at 10 µM: 83.3%
KM12; KM12, 48 h, read-out: GI
  inhibition of growth at 10 µM: 83%
SK-MEL-2
  growth inhibition (GI): Active
NCI-H460; NCI-H460, 48 h, read-out: GI
  inhibition of growth at 10 µM: 96.6%
HCT-116
  growth inhibition (GI): Active
[11]
  inhibition of growth at 10 µM: 56.9%
K562
  inhibition of growth at 10 µM: 99.6%
SF-539
  growth inhibition (GI): Active
Calf thymus DNA
  Tm: 65.6 °C
HCC 2998
  growth inhibition (GI): Active
[12]
  inhibition of growth at 10 µM: 80.3%
BT-549
  growth inhibition (GI): Active
RPMI-8226
  growth inhibition (GI): Active

## Cc1nc2cc(Nc3nc(Nc4ccc(F)cc4)nc(N4CCCC4)n3)ccc2n1Cc1ccccc1
Malme-3M
  growth inhibition (GI): Active
HL-60(TB)
  growth inhibition (GI): Active
TK-10
  growth inhibition (GI): Active
CCRF-CEM [2]
  growth inhibition (GI): Active
UACC-257
  growth inhibition (GI): Active
SK-MEL-5
  growth inhibition (GI): Active
[3]
  GI50: 1.9 µM
  LC50 (concentration killing 50% of cells): 11 µM
  TGI: 4.01 µM
NCI-H226
  growth inhibition (GI): Active
CCRF-CEM [4]
  LC50: > 100 µM
  GI50: 2.54 µM
  TGI: 5.28 µM
NCI-H522
  growth inhibition (GI): Active
MCF7 [5]
  inhibition of growth at 10 µM: 97%
HCT-15
  growth inhibition (GI): Active
MCF7 [6]
  GI50: 1.98 µM
  LC50 (concentration killing 50% of cells): 6.69 µM
  TGI: 4.88 µM
UACC-62
  growth inhibition (GI): Active
[7]
  CC50: > 100 µM
UO-31
  growth inhibition (GI): Active
[8]
  CC50: > 100 µM
A549
  growth inhibition (GI): Active
MDA-MB-231
  growth inhibition (GI): Active
SF-295
  growth inhibition (GI): Active
SR
  LC50 (concentration killing 50% of cells): > 100 µM
[13]
  inhibition of growth at 10 µM: 95.2%
KM12
  growth inhibition (GI): Active
SK-MEL-2
  growth inhibition (GI): Active
NCI-H460
  growth inhibition (GI): Active
HCT-116
  growth inhibition (GI): Active
K562
  inhibition of growth at 10 µM: 100%
SF-539
  growth inhibition (GI): Active
Calf thymus DNA
  Tm: 71.5 °C
HCC 2998
  growth inhibition (GI): Active
BT-549
  growth inhibition (GI): Active
RPMI-8226
  growth inhibition (GI): Active
MOLT-4
  growth inhibition (GI): Active
